Some results are limits rather than exact numbers.

We go through 26 compounds from patent US20260062422A1 (Halda Therapeutics OpCo, Inc., priority 2022, published 2026).

The test system of one experiment is T47D cells. The experiment can be described thus: Cellular growth inhibition assay for T47D cells, CellTiter-Glo. To be noted: Homo sapiens, T47D, 72 h, 72 hours treatment, CellTiter-Glo 2.0 cell viability. Type of experiment: cell-based, human. In short, it runs like this:
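Growth inhibition as GI50, fitted with four parameters to CellTiter-Glo luminescence after 72 h of compound exposure (0.5% DMSO). Cells were T47D, grown in insulin-supplemented (0.2 units/mL) DMEM with 10% FBS and treated one day post-seeding.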
(In general: In ATP-based viability assays light output follows the ATP content of the culture.)

Another experiment has as its target T1, BRD4-BD1 (Homo sapiens, UniProt O60885).
T1 construct: made in house; host or cells: T7 phage grown in an E. coli host derived from BL21
As to the kind of experiment: bromoKdELECT assay for binding affinity to BRD4-BD1. To be noted: Table 6. The protocol: Compounds were tested using a bromoKdELECT assay. T7 phage strains displaying bromodomains were grown in parallel in 24-well blocks in an E. coli host derived from the BL21 strain. E. coli were grown to log-phase and infected with T7 phage from a frozen stock (multiplicity of infection=0.4) and incubated with shaking at 32° C. until lysis (90-150 minutes). The lysates were centrifuged (5,000×g) and filtered (0.2 μm) to remove cell debris. Streptavidin-coated magnetic beads were treated with biotinylated small molecule or acetylated peptide ligands for 30 minutes at room temperature to generate affinity resins for bromodomain assays. The liganded beads were blocked with excess biotin and washed with blocking buffer (SeaBlock (Pierce), 1% BSA, 0.05% Tween 20, 1 mM DTT) to remove unbound ligand and to reduce nonspecific phage binding. Binding reactions were assembled by combining bromodomains, liganded affinity beads, and test compounds in 1× binding buffer (17% SeaBlock, 0.33×PBS, 0.04% Tween 20, 0.02% BSA, 0.004% Sodium azide, 7.4 mM DTT). Test compounds were prepared as 1000× stocks in 100% DMSO. Kds were determined using an 11-point 3-fold compound dilution series with one DMSO control point. All compounds for Kd measurements are distributed by acoustic transfer (non-contact dispensing) in 100% DMSO. The compounds were then diluted directly into the assays such that the final concentration of DMSO was 0.09%. All reactions performed in polypropylene 384-well plates. Each was a final volume of 0.02 ml. The assay plates were incubated at room temperature with shaking for 1 hour and the affinity beads were washed with wash buffer (1×PBS, 0.05% Tween 20). The beads were then resuspended in elution buffer (1×PBS, 0.05% Tween […] non-biotinylated affinity ligand) and incubated at room temperature with shaking for 30 minutes. The bromodomain concentration in the eluates was measured by qPCR.

With `COCC[C@@H]1N=C(c2ccc(CCCOC3CCN(c4ncc(C(=O)N[C@H]5C(C)(C)[C@H](Oc6ccc(C#N)c(Cl)c6)C5(C)C)cn4)CC3)cc2)c2c(sc(C)c2C)-n2c(C)nnc21` [Compound I-227, N-[3-(3-chloro-4-cyano-phenoxy)-2,2,4,4-tetramethyl-cyclobutyl]-2-[4-[3-[4-[(9S)-9-(2-methoxyethyl)-4,5,13-trimethyl-3-thia-1,8,11,12-tetrazatricyclo[8.3.0.02,6]trideca-2(6),4,7,10,12-pentaen-7-yl]phenyl]propoxy]-1-piperidyl]pyrimidine-5-carboxamide], in the experiment with T47D cells, the GI50 was in the range of 500 to 1500 nM. At BRD4-BD1, this compound had a Kd greater than 2500 nM.

As to `Cc1sc2c(c1C)C(c1ccc(Cl)cc1)=N[C@@H](CC(=O)NCCCCCCCOC1CCN(c3ncc(C(=O)N[C@H]4C(C)(C)[C@H](Oc5ccc(C#N)c(Cl)c5)C4(C)C)cn3)CC1)c1nnc(C)n1-2` [Compound I-24], the Kd at BRD4-BD1 was greater than 2500 nM.

Turning to `Cc1sc2c(c1C)C(c1ccc(Cl)cc1)=N[C@@H](CC(=O)NCCOCCOCCOCC1CCN(c3ncc(C(=O)N[C@H]4C(C)(C)[C@H](Oc5ccc(C#N)c(Cl)c5)C4(C)C)cn3)CC1)c1nnc(C)n1-2` [Compound I-17], on BRD4-BD1, the Kd was in the range of 50 to 500 nM.

Compound `Cc1sc2c(c1C)C(c1ccc(Cl)cc1)=N[C@@H](CC(=O)NCCCN1CCN(CC3CCN(c4ncc(C(=O)N[C@H]5C(C)(C)[C@H](Oc6ccc(C#N)c(Cl)c6)C5(C)C)cn4)CC3)CC1)c1nnc(C)n1-2` [Compound I-36, N-((1r,3r)-3-(3-chloro-4-cyanophenoxy)-2,2,4,4-tetramethylcyclobutyl)-2-(4-((4-(3-(2-((S)-4-(4-chlorophenyl)-2,3,9-trimethyl-6H-thieno[3,2-f][1,2,4]triazolo[4,3-a][1,4]diazepin-6-yl)acetamido)propyl)piperazin-1-yl)methyl)piperidin-1-yl)pyrimidine-5-carboxamide] displayed a GI50 in the experiment on T47D cells of less than 500 nM. For the same compound, the Kd at BRD4-BD1 was in the range of 50 to 500 nM.

For `CCNC(=O)C[C@@H]1N=C(c2ccc(N(C)CC3CN(c4ncc(C(=O)N[C@H]5C(C)(C)[C@H](Oc6ccc(C#N)c(Cl)c6)C5(C)C)cn4)C3)cc2)c2c(sc(C)c2C)-n2c(C)nnc21` [Compound I-107], the GI50 with T47D cells was 500 to 1500 nM. This compound also displayed a Kd at BRD4-BD1 of 50 to 500 nM.

On to `Cc1sc2c(c1C)C(c1ccc(Cl)cc1)=N[C@H](CC(=O)NCCOCCOCCOCCOCCOCCOCCOC1CCN(c3ncc(C(=O)N[C@H]4C(C)(C)[C@H](Oc5ccc(C#N)c(Cl)c5)C4(C)C)cn3)CC1)c1nnc(C)n1-2` [Compound I-9], for which the Kd at BRD4-BD1 fell in the range of 500 to 2500 nM.

`Cc1sc2c(c1C)C(c1ccc(Cl)cc1)=N[C@@H](CC(=O)NCCOC1CCN(c3ncc(C(=O)N[C@H]4C(C)(C)[C@H](Oc5ccc(C#N)c(Cl)c5)C4(C)C)cn3)CC1)c1nnc(C)n1-2` [Compound I-6] registered a Kd on BRD4-BD1 greater than 2500 nM.

On BRD4-BD1, `Cc1sc2c(c1C)C(c1ccc(Cl)cc1)=N[C@@H](CC(=O)NCCOCCOCCOCCOC1CCN(c3ncc(C(=O)N[C@H]4C(C)(C)[C@H](Oc5ccc(C#N)c(Cl)c5)C4(C)C)cn3)CC1)c1nnc(C)n1-2` [Compound I-11] had a dissociation constant Kd of 500 to 2500 nM.

For `Cc1sc2c(c1C)C(c1ccc(Cl)cc1)=N[C@@H](CC(=O)NCCOCCOCCOCCOCCN(C)c1ncc(C(=O)N[C@H]3C(C)(C)[C@H](Oc4ccc(C#N)c(Cl)c4)C3(C)C)cn1)c1nnc(C)n1-2` [Compound I-3, N-((1r,3r)-3-(3-chloro-4-cyanophenoxy)-2,2,4,4-tetramethylcyclobutyl)-2-((1-((S)-4-(4-chlorophenyl)-2,3,9-trimethyl-6H-thieno[3,2-f][1,2,4]triazolo[4,3-a][1,4]diazepin-6-yl)-2-oxo-6,9,12,15-tetraoxa-3-azaheptadecan-17-yl)(methyl)amino)pyrimidine-5-carboxamide], the Kd on BRD4-BD1 lay within 50 to 500 nM.

The compound `Cc1sc2c(c1C)C(c1ccc(Cl)cc1)=N[C@H](CC(=O)NCCOCCOCCOCCOC1CCN(c3ncc(C(=O)N[C@H]4C(C)(C)[C@H](Oc5ccc(C#N)c(Cl)c5)C4(C)C)cn3)CC1)c1nnc(C)n1-2` [Compound I-13] had a Kd on BRD4-BD1 greater than 2500 nM.

`Cc1sc2c(c1C)C(c1ccc(Cl)cc1)=N[C@H](CC(=O)NCCOCCOCCOCCOCCN(C)c1ncc(C(=O)N[C@H]3C(C)(C)[C@H](Oc4ccc(C#N)c(Cl)c4)C3(C)C)cn1)c1nnc(C)n1-2` [Compound I-19] displayed a Kd at BRD4-BD1 greater than 2500 nM.

As for `CCNC(=O)C[C@@H]1N=C(c2ccc(N3CCC(OC4CCN(c5ncc(C(=O)N[C@H]6C(C)(C)[C@H](Oc7ccc(C#N)c(Cl)c7)C6(C)C)cn5)CC4)CC3)cc2)c2c(sc(C)c2C)-n2c(C)nnc21` [Compound I-114], the dissociation constant (Kd) at BRD4-BD1 lay within 50 to 500 nM.

With `Cc1sc2c(c1C)C(c1ccc(Cl)cc1)=N[C@@H](CC(=O)NCCOCCOCCOCC1CN(c3ncc(C(=O)N[C@H]4C(C)(C)[C@H](Oc5ccc(C#N)c(Cl)c5)C4(C)C)cn3)C1)c1nnc(C)n1-2` [Compound I-18], the Kd at BRD4-BD1 lay in the range of 50 to 500 nM.

`Cc1sc2c(c1C)C(c1ccc(O[C@H]3CC[C@@]4(CCCN(c5ncc(C(=O)N[C@H]6C(C)(C)[C@H](Oc7ccc(C#N)c(Cl)c7)C6(C)C)cn5)C4)CC3)cc1)=N[C@@H](Cc1ncco1)c1nnc(C)n1-2` [Compound I-172] registered a GI50 in the experiment on T47D cells of less than 500 nM.

Take `CCNC(=O)C[C@@H]1N=C(c2ccc(OC3CCN(c4ncc(C(=O)N[C@H]5C(C)(C)[C@H](Oc6ccc(C#N)c(Cl)c6)C5(C)C)cn4)CC3)cc2)c2c(sc(C)c2C)-n2c(C)nnc21` [Compound I-61]: the concentration for 50% growth inhibition (GI50) with T47D cells was 500 to 1500 nM.

In the case of `CCNC(=O)C[C@@H]1N=C(c2ccc(CCCN(C)c3ncc(C(=O)N[C@H]4C(C)(C)[C@H](Oc5ccc(C#N)c(Cl)c5)C4(C)C)cn3)cc2)c2c(sc(C)c2C)-n2c(C)nnc21` [Compound I-104], the GI50 in the experiment with T47D cells was less than 500 nM.

For `Cc1sc2c(c1C)C(c1ccc(Cl)cc1)=N[C@@H](CC(=O)NCCCCOCCOC1CCN(c3ncc(C(=O)N[C@H]4C(C)(C)[C@H](Oc5ccc(C#N)c(Cl)c5)C4(C)C)cn3)CC1)c1nnc(C)n1-2` [Compound I-28], the Kd at BRD4-BD1 was in the range of 500 to 2500 nM.

The compound `CCNC(=O)C[C@@H]1N=C(c2cccc(OCCOC3CCN(c4ncc(C(=O)N[C@H]5C(C)(C)[C@H](Oc6ccc(C#N)c(Cl)c6)C5(C)C)cn4)CC3)c2)c2c(sc(C)c2C)-n2c(C)nnc21` [Compound I-46, N-((1r,3r)-3-(3-chloro-4-cyanophenoxy)-2,2,4,4-tetramethylcyclobutyl)-2-(4-(2-(3-((S)-6-(2-(ethylamino)-2-oxoethyl)-2,3,9-trimethyl-6H-thieno[3,2-f][1,2,4]triazolo[4,3-a][1,4]diazepin-4-yl)phenoxy)ethoxy)piperidin-1-yl)pyrimidine-5-carboxamide] displayed a GI50 in the experiment on T47D cells of 500 to 1500 nM.

As to `Cc1sc2c(c1C)C(c1ccc(Cl)cc1)=N[C@@H](CC(=O)NCCCN1CCN(CCCOC3CCN(c4ncc(C(=O)N[C@H]5C(C)(C)[C@H](Oc6ccc(C#N)c(Cl)c6)C5(C)C)cn4)CC3)CC1)c1nnc(C)n1-2` [Compound I-10], at BRD4-BD1, the Kd lay in the range of 50 to 500 nM.

Take `CCNC(=O)C[C@@H]1N=C(c2ccc(N3CCC(N(C)C4CN(c5ncc(C(=O)N[C@H]6C(C)(C)[C@H](Oc7ccc(C#N)c(Cl)c7)C6(C)C)cn5)C4)CC3)cc2)c2c(sc(C)c2C)-n2c(C)nnc21` [Compound I-123]: the GI50 in the experiment with T47D cells is less than 500 nM.

With `CCNC(=O)C[C@@H]1N=C(c2ccc(N(C)C3CC(OC4CCN(c5ncc(C(=O)N[C@H]6C(C)(C)[C@H](Oc7ccc(C#N)c(Cl)c7)C6(C)C)cn5)CC4)C3)cc2)c2c(sc(C)c2C)-n2c(C)nnc21` (some centres unmarked) [Compound I-130], in the experiment on T47D cells, the GI50 is 500 to 1500 nM.

Compound `Cc1sc2c(c1C)C(c1ccc(C3CC3C3CC4(CCN(c5ncc(C(=O)N[C@H]6C(C)(C)[C@H](Oc7ccc(C#N)c(Cl)c7)C6(C)C)cn5)CC4)C3)cc1)=N[C@@H](Cc1ncco1)c1nnc(C)n1-2` (some centres unmarked) [Compound I-237] gave a GI50 with T47D cells of less than 500 nM.

`Cc1sc2c(c1C)C(c1ccc(C#CC3CC4(CCN(c5ncc(C(=O)N[C@H]6C(C)(C)[C@H](Oc7ccc(C#N)c(Cl)c7)C6(C)C)cn5)CC4)C3)cc1)=N[C@@H](Cc1ncco1)c1nnc(C)n1-2` [Compound I-267]: the GI50 in the experiment on T47D cells is less than 500 nM.

`CCNC(=O)C[C@@H]1N=C(c2ccc(N3CCC(N(C)C4CCN(c5ncc(C(=O)N[C@H]6C(C)(C)[C@H](Oc7ccc(C#N)c(Cl)c7)C6(C)C)cn5)CC4)CC3)cc2)c2c(sc(C)c2C)-n2c(C)nnc21` [Compound I-113] returned a Kd at BRD4-BD1 of less than 50 nM.

As to `CCNC(=O)C[C@@H]1N=C(c2ccc(N(C3CC3)C3CN(CC4CCN(c5ncc(C(=O)N[C@H]6C(C)(C)[C@H](Oc7ccc(C#N)c(Cl)c7)C6(C)C)cn5)CC4)C3)cc2)c2c(sc(C)c2C)-n2c(C)nnc21` [Compound I-129], in the experiment with T47D cells, the GI50 fell in the range of 500 to 1500 nM.

In turn, `Cc1sc2c(c1C)C(c1ccc(CC3CN(CC4CCN(c5ncc(C(=O)N[C@H]6C(C)(C)[C@H](Oc7ccc(C#N)c(Cl)c7)C6(C)C)cn5)CC4)C3)cc1)=N[C@@H](Cc1ncco1)c1nnc(C)n1-2` [Compound I-153] had a GI50 in the experiment with T47D cells of less than 500 nM.

As a reminder, the GI50 is the concentration giving 50% growth inhibition. A higher GI50 goes with lower sensitivity of the cells. One may read the Kd as the free concentration of one partner at which half of the binding sites on the other are occupied at equilibrium, for simple one-to-one binding. A lower Kd goes with a tighter complex.
